Patent US9987296B2, “Compositions including anthocyanin or anthocyanidin for the prevention or treatment of Articular cartilage-associated conditions” (priority 2008, dated 2018)
Entries after “also recorded” stand apart in the source; their conditions may differ.

What was measured:
Assay type in all cases: cell-based
IGF-1 = IGF-1 production by ELISA, cultured human chondrocytes; settings: for IGF-1 production: cultured chondrocytes treated with compound, presence and absence of IL-1; for IGF-1 production compared to IL-1 alone: human chondrocytes in culture, 5 or 50 ug/mL (FIGS. 5, 6)
Method: Chondrocytes were prepared by the enzymatic digestion of knee cartilage, as previously described. (Ahmed S et al., J Nutr 2005 135:20962102). Chondrocytes were plated (1×10^6 cells/mL) in 35 mm culture dishes (BD, Mountain View, Calif.) and cultured in DMEM:F12 (Mediatech, Herndon, Va.) supplemented with 10% FCS and 1% Penn:Strep for 72 hrs at 37° C. and 5% CO2 in a tissue culture incubator. Chondrocytes were serum starved overnight and then exposed to either kuromanin or cyanidin chloride (5 or 50 ug/mL), progrado (2 or 10 ug/mL) alone or in combination in fresh serum-free medium for 1 hr prior to the addition of IL-β.
Human IGF-1 label in chondrocytes culture or cartilage explant media was quantified using a commercially available Human IGF-1 ELISA kit (R& D Systems) per manufacturer's directions.

[1] = system: bovine cartilage explants; test: Matrix synthesis (35S uptake) in bovine cartilage explants
Method: (§1) Bovine cartilage explants (full thickness, 6 mm in diameter) were harvested from fresh femoral condyles. Human osteochondral plugs were harvested using 6 mm osteochondral grafting donor tool (Arthrez 1981-06S, Naples, Fla.) from femoral condyles retrieved from total knee arthroplasty surgery that had been stored in DMEM at 20 degrees C. for less than 24 hours. Full-thickness cartilage explants were cut from the subchondral bone. Each of the 6 mm cartilage disks were divided into 4 equal quadrants. Each quadrant was placed in a different experimental group. This allowed for a paired comparison and controlled for differences in grade of arthritis, thickness of cartilage, cell density, etc. The explants were washed 4-5 times with DMEM with 10% calf serum and were allowed to stabilize for 24 hours in a tissue culture incubator. Explants were then serum starved (0.1% calf serum) for 24 hours prior to commencement of cyanidin chloride treatment.
(§2) 3 mL fresh media with 20 uCi/mL of ^35S-labeled sodium sulfate (NEX0414 Perkin Elmer, Boston, Mass.) (DMEM with 10% CS) was added to each of the explants along with 30 uL of 50 mM stock cyanidin chloride (MW 322.7 g/mole) solution (diluted in DMSO) (Chromadex Inc., Irvine, Calif.) to give the final cyanidin chloride concentration of (200 or 500 uM) in culture. Explants were subjected to cyanidin chloride treatment for 48 hours.
(§3) Radioactive media was aspirated after 48 hours and explants were washed in ice-cold 1×PBS for 10 minutes×3. Each cartilage explant quadrant was blotted dry and was placed in 500 uL of 2 mg/mL Proteinase K (Fisher Scientific, Fair Lawn, N.J.) in TE Buffer solution (10 mM Tris, 1 mM EDTA) and was allowed to rotate at 57 degrees C. for 24 hours in a hybridization oven until completely dissolved. Quantification of ^35S-labeled proteoglycans complexed to alcian blue by rapid filtration in multiwall plates was adopted and modified from Masuda et al Anal. Biochem 1994; 217:167-75. 75 uL of dilution buffer (50 mM Sodium Acetate pH^− 5.8. 0.5% Triton X-100) was added to each well of a 96 well plate (Millipore Multiscreen 96-well filtration system, Millipore, Billerica, Mass.) 25 uL of each digested cartilage explant sample was then loaded followed by 150 uL of 0.2% alcian blue solution (Alcian Blue 8GX electrophoresis grade, Sigma-Aldrich Inc., St. Louis Mo.) and was allowed to rotate for 1 hour at room temperature. The 96-well plate was then placed over a vacuum-manifold to aspirate the contents of the wells through the screen. The 3×200 uL vacuum washes with wash buffer (50 mM sodium acetate pI-I 5.8, 100 mM sodium sulfate, 50 mM MgCl2) were then performed. The 96-well filtration plate was then completely dried at 57 degrees C. for 5 minutes in a hybridization oven and was exposed to storage phosphor screen for 24 hours (Packard Instrument Company Inc., Meriden. Conn.). Phosphorimaging with Cyclone model A431200 (Packard Instrument Company Inc. Meriden, Conn.) was performed to quantify ^35S uptake by proteoglycans. ^35S uptake by proteoglycans in cartilage explants was normalized to DNA by Quant-iT ds DNA Assay Kit (Invitrogen Inc., Carlsbad Calif.).
The effect of cyanidin on bovine cartilage explants was tested. The dose response was also determined. Cartilage explants were treated with 1L-1 (50 ng/mL) for 24 hours. IL-1 reduces matrix synthesis and induces an inflammatory respond similar to osteoarthritis. Explants were then treated with cyanidin chloride at either 200 or 500 uM concentration for 24 hours. Matrix synthesis was monitored by measuring uptake of ^35S.
Bovine explants were initially subjected to IL-1 treatment for 24 hours. Explants were then treated with 500 uM cyanidin chloride in a low glucose (1 g/L) or high glucose concentration (4.5 g/L). […] The higher the glucose concentration increased matrix synthesis by 10%. The cyanidin treatment had small effect under low glucose conditions, but the effect was nearly 20% greater in the high glucose condition.

[2] = system: human osteoarthritic cartilage explants; test: Matrix synthesis (35S uptake) in human osteoarthritic cartilage explants
Method: as §1, §2, §3
Reported clinical experiments indicate that 10% dextrose injected in the joint can have a therapeutic effect on osteoarthritis. To test this effect, human osteoarthritic cartilage explants (Grade II) were treated with glucose at physiologic (0.45%) or were treated with supraphysiologic (2.5% and 5%) concentrations with 500 uM cyanidin chloride.

[3] = system: Human articular chondrocytes; test: MTT assay; settings: human articular chondrocytes in culture, 96 hours
Method: Chondrocytes were isolated from non-arthritic regions of adult human articular cartilage (N=3 donors) and expanded in tissue culture flasks in DMEM supplemented with 10% calf serum.
The following compounds were provided by Chromadex, Inc. and tested from 1 uM to 500 uM:
Human articular chondrocytes were seeded in 96-well culture trays at a density of 5000 cells/well and incubated with the selected concentration of the anthocyanin for 4 days. At the end of the 4 day period, fresh MTT (3(4,5-Dimethylthiazol-2-yl)-2,5-diphenyltetrazolium bromide) was made in PBS and filter sterilized. MTT (25 ul per well) was added to the cell culture and incubated for 5 hours in the CO2 incubator at 37° C. Yellow MIT is reduced to purple formazan in living cells. The supernatant from each well was removed, and 200 Ill of DMSO was added. A multi-channel pipette was used to dissolve crystals. The microplate was placed back into the incubator at 37° C. for 5 min. Formazan levels in each well were read using a spectrophotometer at 550 nm wavelength.

SMILES	IGF-1 production (media levels) (IGF-1; IL-1 with high dose 50 ug/mL)	IGF-1 production (media levels) (IGF-1; IL-1 with low dose 5 ug/mL)	IGF-1 production (IGF-1)	IGF-1 production (media levels) (IGF-1; high dose (50 ug/mL) alone)	IGF-1 production compared to IL-1 alone (IGF-1)	effect on matrix synthesis, greater in high glucose than in low glucose ([1]; 500 uM, high glucose (4.5 g/L), after IL-1)	effect on matrix synthesis ([1]; 500 uM, low glucose (1 g/L), after IL-1)	matrix synthesis (35S uptake) ([1]; IL-1 50 ng/mL 24 hours, then 200 or 500 uM for 24 hours, listed as Cyanidin)	matrix synthesis (35S uptake) ([1]; IL-1 50 ng/mL 24 hours, then 200 or 500 uM for 24 hours, listed as cyanidin)	matrix synthesis (35S uptake) ([1]; IL-1 50 ng/mL 24 hours, then 200 or 500 uM for 24 hours, listed as cyanidin chloride)	matrix synthesis (35S uptake) ([1]; after IL-1, 500 uM combined with high glucose (4.5 g/L))	synergy of cyanidin and glucose on matrix synthesis ([2]; cyanidin 500 uM combined with glucose)	matrix synthesis (35S uptake) ([2]; human OA Grade II explants, 500 uM at 0.45% glucose)	matrix synthesis (35S uptake) ([2]; human OA grade II-III explants, 500 uM)	non-toxic concentration [3]	increase of matrix synthesis ([1]; higher glucose concentration (4.5 g/L vs 1 g/L), after IL-1)	matrix synthesis (35S uptake) ([2]; glucose 0.45% (low, physiologic))	matrix synthesis (35S uptake) ([2]; supraphysiologic glucose (2.5% and 5%))
Oc1cc(O)c2cc(O)c(-c3ccc(O)c(O)c3)[o+]c2c1 [Cyanidin chloride]	no restoration of media IFG-1 levels	no restoration of media IFG-1 levels	Reduced production of IGF-1	reduced IGF-1 production from control values	greater than IL-1 alone when treated with cyanidin alone at high levels and at low levels in combination with IL-1	~20%	small effect	inconsistent effect	Initially a dose response was identified but difficult to reproduce	we could not reproduce this effect in several subsequent experiments	significantly induce chondroreparative activity; also recorded: increased matrix synthesis the most	did not have significant synergistic effect	no effect on matrix synthesis	no effect on human OA explants; also recorded: did not increase matrix synthesis in human OA tissue	100 µM	–	–	–
OC[C@H]1O[C@@H](Oc2cc3c(O)cc(O)cc3[o+]c2-c2ccc(O)c(O)c2)[C@H](O)[C@@H](O)[C@@H]1O.[Cl-] [Kuromanin chloride]	no effect over IL-1	restoration of IGF-1 production	Reduced production of IGF-1	reduced IGF-1 protein levels in the media to a similar level as to that seen with IL-1	greater than IL-1 alone when treated with kuromanin at high levels and at low levels in combination with 1L-1	–	–	–	–	–	–	–	–	–	100 µM	–	–	–
O=C[C@H](O)[C@@H](O)[C@H](O)[C@H](O)CO [glucose]	–	–	–	–	–	–	–	–	–	–	–	–	–	–	–	10%	stimulate matrix synthesis more than higher concentrations of glucose; also recorded: beneficial effect	reduced matrix synthesis; also recorded: suppressed matrix synthesis
